# Like-named read-outs stand apart in the source and are kept apart here.
# What was measured:
# [1] = system: dopamine (DA) receptors in the limbic system; test: Locomotor activity (spontaneous or aroused by (-)APO / (-)NPA), electronic activity monitor; format: in vivo, rat; conditions: Table 5; (-)NPA 0.3 mg/kg + saline
# Description: (§1) Activity: Overall motor activity was measured by use of the self-recording Stoelting electronic activity monitor method described previously by Stewart, Campbell, Sperk, and Baldessarini^9. Total activity is obtained by setting monitor sensitivity so as to detect both locomotion and small movements (such as grooming, sniffing, and chewing) as would be prominent in stereotyped responses that tend to diminish locomotion and increase sniffing, licking, and chewing movements. Locomotor activity is detected selectively by setting monitor sensitivity to detect large, locomotor movements, and to minimize smaller movements already described.
# Rats (mean N=6 per condition) were tested for locomotor activity for 60 min following a single dose of (-)APO (0.3 mg/kg, SC), or its vehicle ("placebo" condition). The S(+) isomers were administered in a range of doses from 0 or 0.1 to 30 mg/kg, SC immediately following injection of (-)APO or its vehicle. Data are presented in FIG. 2 as mean EAM activity counts per hour SEM. In that figure, the dashed line labeled "control" represents the mean activity of rats given vehicle only and no aporphine (SD values are indicated by parallel light lines above and below the control mean).
# Test agents (11substituted-N--propylnoraporphine isomers were given at a
# dose of 3 mg/kg, ip (in 2 ml/kg) just prior to (-)apomorphine (APO, at 0.
# mg/kg, ip, in 1 ml/kg) to rats (N = 6) tested in an electronic activity
# [2] = target: T1, Dopamine (DA) sensitive adenylate cyclase (Rattus norvegicus, UniProt P18901); test: Stimulation of formation of cyclic AMP in rat striatal homogenate; format: biochemical
# T1 construct: homogenates of rat corpus striatum; from tissue; host or cells: rat corpus striatum homogenate
# Description: assayed in homogenates of corpus striatum obtained from rat brain. The
# method of assay of the activity of DAsensitive adenylate cyclase by the
# rate of formation of cAMP above a basal (no agonist) level is described
# under Experimental Section. The data are mean values of cAMP levels in […]
# [3] = system: dopamine (DA) receptors in the limbic system and basal ganglia; test: Total motor activity, electronic activity monitor (EAM); format: in vivo, rat
# Description: as §1
# (§2) All data presented in the Tables below are expressed as the mean results from 4-6 rats per condition, ±S.E.M. Stereotypy is expressed in rating units (maximum=3.0) and activity is expressed in arbitrary units of percent change, derived from EAM counts per unit time, relative to activity in control (saline) animals set at zero.
# All the posttreatment doses of (+)APO were 3.0 mg/kg, s.c. The data
# All posttreatment doses of (+)NPA were 3 mg/kg, s.c. The data are similar
# [4] = system: dopamine (DA) receptors in the limbic system; test: Locomotor activity (spontaneous or aroused by (-)APO / (-)NPA), electronic activity monitor; format: in vivo, rat; conditions: Table 5; (-)NPA 3.0 mg/kg + saline
# Dopamine Receptors [5] = format: binding, calf; conditions: ligand [3H]ADTN (0.5 nM)
# [6] = system: dopamine (DA) receptors in the basal ganglia (corpus striatum); test: Stereotyped licking and gnawing behavior rating in the rat; format: in vivo
# Description: Stereotypy: The mean stereotyped licking and gnawing behavioral rating scheme developed by Tarsy and Baldessarini^8 was used. […]
# Stereotypy scores were rated for one hour as described in […]
# [7] = target: T2, rat liver catechol O-methyl-transferase (COMT) (Rattus norvegicus, UniProt P22734); test: Isomeric substrate selectivity for rat liver COMT; format: biochemical
# T2 construct: partially purified rat liver catechol O-methyl-transferase (COMT); from tissue; host or cells: rat liver, ammonium sulfate precipitation and dialysis
# T2 sequence (P22734 1-221 isoform P22734-2): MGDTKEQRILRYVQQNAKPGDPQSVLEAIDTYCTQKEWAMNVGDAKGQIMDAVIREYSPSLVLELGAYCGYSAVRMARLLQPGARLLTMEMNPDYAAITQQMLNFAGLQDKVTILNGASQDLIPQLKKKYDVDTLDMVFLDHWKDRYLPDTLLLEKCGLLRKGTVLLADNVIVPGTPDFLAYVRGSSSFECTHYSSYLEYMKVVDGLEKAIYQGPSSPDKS
# [8] = Catalepsy (latency to resume normal posture); format: in vivo, rat; conditions: s.c., maximum 18.0
# Description: Catalepsy: This measure of muscle rigidity is assessed by having animals in abnormal body positions and timing their duration of maintaining these. This is done by placing rats on a wire grid placed at a 45° angle to the benchtop, or by placing their forelimbs on a raised horizontal metal bar, and timing the latency to resume a normal posture by stopwatch.
# as §2
# Dopamine Receptors [9] = format: binding, calf; conditions: ligand [3H]APO (0.5 nM)
# [10] = 2.5 min, read-out: cAMP production, % of control
# [11] = Table 5, (-)NPA 0.3 mg/kg + saline
# [12] = Table 5, (-)NPA 3.0 mg/kg + saline
# T1 sequence (P18901 whole entry): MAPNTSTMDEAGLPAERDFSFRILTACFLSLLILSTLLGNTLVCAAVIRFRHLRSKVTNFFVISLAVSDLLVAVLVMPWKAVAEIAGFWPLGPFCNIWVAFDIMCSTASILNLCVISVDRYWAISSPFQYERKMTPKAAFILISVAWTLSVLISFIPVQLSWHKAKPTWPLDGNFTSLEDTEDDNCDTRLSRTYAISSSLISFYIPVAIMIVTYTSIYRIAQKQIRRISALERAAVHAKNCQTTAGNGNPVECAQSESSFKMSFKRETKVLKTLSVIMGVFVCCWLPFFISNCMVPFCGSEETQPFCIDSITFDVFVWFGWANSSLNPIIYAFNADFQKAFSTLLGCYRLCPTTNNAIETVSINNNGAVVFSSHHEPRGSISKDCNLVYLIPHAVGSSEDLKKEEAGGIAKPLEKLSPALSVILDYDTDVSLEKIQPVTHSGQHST
smiles,measurement,setting,value
"CCCN1CCc2cccc3c2[C@H]1Cc1ccc(O)c(O)c1-3 [(-)NPA, (R)-N-n-propylnorapomorphine]",Locomotion,[1],48.1 ± 9.2 percent change
same,cAMP production,[2]; 1 μM,3.71 ± 0.31 picomoles per 2.5 min
same,cAMP production,[2]; 5 μM,4.57 ± 0.13 picomoles per 2.5 min
same,cAMP production,[2]; 10 μM,5.34 ± 0.27 picomoles per 2.5 min
same,cAMP production,[2]; 50 μM,5.71 ± 0.24 picomoles per 2.5 min
same,cAMP production,[2]; 100 μM,5.56 ± 0.24 picomoles per 2.5 min
same,"cAMP formation, % of control at 1 µM",[2]; [10],150%
same,"cAMP formation, % of control at 5 µM",[2]; [10],184%
same,"cAMP formation, % of control at 10 µM",[2]; [10],215%
same,"cAMP formation, % of control at 50 µM",[2]; [10],230%
same,"cAMP formation, % of control at 100 µM",[2]; [10],224%
same,Total Activity,"[3]; Table 3, 0.1 mg/kg, s.c.",2.0 ± 1.8 percent change vs. placebo con
same,Total Activity,"[3]; Table 3, 0.3 mg/kg, s.c.",2.1 ± 3.2 percent change vs. placebo con
same,Total Activity,"[3]; Table 3, 3.0 mg/kg, s.c.",231.4 ± 37 percent change vs. placebo con
same,Total Activity,[3]; [11],22.1 ± 3.7 percent change
same,Total Activity,[3]; [12],231.4 ± 37 percent change
same,Locomotion,[4],10.2 ± 6.3 percent change
same,IC50,Dopamine Receptors [5],2 nM
same,Stereotypy Score,"[6]; Table 1, (-) isomer 3 mg/kg, s.c., ± saline, maximum 3.0",2.9 ± 0.1 rating units
same,Stereotypy Score,"[6]; Table 3, 0.1 mg/kg, s.c., maximum 3.0",1.1 ± 0.2 rating units
same,Stereotypy Score,"[6]; Table 3, 0.3 mg/kg, s.c., maximum 3.0",2.0 ± 0.3 rating units
same,Stereotypy Score,"[6]; Table 3, 3.0 mg/kg, s.c., maximum 3.0",2.9 ± 0.9 rating units
same,Stereotypy Score,"[6]; Table 3, 5.0 mg/kg, s.c., maximum 3.0",3.0 ± 0.0 rating units
same,Stereotypy Score,[6]; [11],2.0 ± 0.2 rating units
same,Stereotypy Score,[6]; [12],2.8 ± 0.4 rating units
same,Vmax (range of two experiments),[7]; footnote range,8.9-11.1 (pmol/assay)/h
same,Vmax,"[7]; mean, substrate of rat liver COMT",10.0 (pmol/assay)/h
same,Catalepsy score,[8]; 0.1 mg/kg,0.5 ± 0.2
same,Catalepsy score,[8]; 3.0 mg/kg,0.8 ± 0.3
same,IC50,Dopamine Receptors [9],2.5 nM
